The experiment deals with HCoV-229E. The experiment can be described thus: HCoV-229E-Luc infection inhibition luciferase assay. The format is cell-based.

Turning to `CN(C)C(=O)COC(=O)Cc1ccc(OC(=O)c2ccc(NC(=N)N)cc2)cc1` [Camostat], the “HCoV-229E infection with entry inhibitor” value is “inhibited infection”. Regarding `CCOC(=O)[C@H]1O[C@@H]1C(=O)N[C@@H](CC(C)C)C(=O)NCCC(C)C` [E64D], the “HCoV-229E infection with entry inhibitor” value is “specifically inhibited HCoV-229E infection”.

(Values after PMC8846325, “A Photoactivable Natural Product with Broad Antiviral Activity against Enveloped Viruses, Including Highly Pathogenic Coronaviruses” (Antimicrobial Agents and Chemotherapy, 2022).)
